The experiment concerns the target Serine/threonine-protein phosphatase PP1-alpha catalytic subunit (Homo sapiens) (UniProt P62136). The experiment is described as follows: PP1 inhibitor potency with OMFP substrate, dose response, biochemical, fluorescence, set 1 (AID 652222). The settings on record: purified PP1alpha, OMFP dephosphorylation.
Sequence of Serine/threonine-protein phosphatase PP1-alpha catalytic subunit (Homo sapiens) (P62136 whole entry, looked up): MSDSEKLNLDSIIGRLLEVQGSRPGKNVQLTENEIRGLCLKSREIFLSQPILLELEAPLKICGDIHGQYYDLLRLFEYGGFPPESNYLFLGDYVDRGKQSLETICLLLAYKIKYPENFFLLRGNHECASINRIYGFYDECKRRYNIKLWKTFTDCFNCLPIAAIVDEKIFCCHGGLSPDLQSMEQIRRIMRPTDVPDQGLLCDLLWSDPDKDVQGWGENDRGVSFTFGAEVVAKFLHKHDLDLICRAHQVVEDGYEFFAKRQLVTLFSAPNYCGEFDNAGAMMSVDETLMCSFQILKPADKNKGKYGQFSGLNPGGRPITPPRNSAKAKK
One may read the IC50 as the concentration that inhibits the measured activity by half. `CN1CCC(NC(c2ccccn2)c2ccc3cccnc3c2O)CC1` (stereo not drawn): the IC50 is 2500 nM.
The same measure for `CN1CCN(C(c2ncccn2)c2ccc3cccnc3c2O)CC1` (stereo not drawn): 2690 nM.
The same measure for `Cc1cccc(C(c2ccc3cccnc3c2O)N2CCN(C)CC2)n1` (stereo not drawn): 2520 nM.
The same measure for `CN1CCN(C(c2ccc3cccnc3c2O)c2ncccc2C(F)(F)F)CC1` (stereo not drawn): 1120 nM; for `Cc1ccc(C(c2ccc3cccnc3c2O)N2CCN(C)CC2)nc1` (stereo not drawn): 1340 nM; for `Cc1ccc2ccc(C(c3ccccn3)N3CCN(C)CC3)c(O)c2n1` (stereo not drawn): 1440 nM.
Regarding `Cc1ccnc(C(c2ccc3cccnc3c2O)N2CCN(C)CC2)c1` (stereo not drawn), the IC50 was 1800 nM.
The same measure for `CN1CCN(C(c2ccc(C(F)(F)F)cn2)c2ccc3cccnc3c2O)CC1` (stereo not drawn): 836 nM; for `CC(C)(C)OC(=O)N1CCN(C(c2ccccn2)c2cc(Cl)c3cccnc3c2O)CC1` (stereo not drawn): 1370 nM; for `CC1CCN(C(c2ccccn2)c2cc(Cl)c3cccnc3c2O)CC1` (stereo not drawn): 1450 nM.
For the molecule `COc1ccc(C(c2ccc3cccnc3c2O)N2CCN(C)CC2)nc1` (stereo not drawn), the IC50 is 1690 nM.
With `Oc1c(C(NC2CCCCC2)c2ccccn2)ccc2cccnc12` (stereo not drawn), the IC50 was 1360 nM.
On to `Oc1c(C(c2ccccn2)N2CCN(c3ccccc3F)CC2)cc(Cl)c2cccnc12` (stereo not drawn), for which the IC50 was 2410 nM.
The same measure for `COc1ccnc(C(c2ccc3cccnc3c2O)N2CCN(C)CC2)c1` (stereo not drawn): 1260 nM; for `COc1cccc(C(c2ccc3cccnc3c2O)N2CCN(C)CC2)n1` (stereo not drawn): 8870 nM; for `Cc1cccnc1C(c1ccc2cccnc2c1O)N1CCN(C)CC1` (stereo not drawn): 1480 nM.
The same measure for `Oc1c(C(c2ccccn2)N2CCCC2)ccc2cccnc12` (stereo not drawn): 1410 nM; for `Oc1c(C(c2ccccn2)N2CCC(Cc3ccccc3)CC2)cc(Cl)c2cccnc12` (stereo not drawn): 1230 nM.

(Values after PubChem BioAssay AID652222 (The Scripps Research Institute Molecular Screening Center, 2013).)
